The compounds below were run on P. falciparum 3D7 growth, pLDH absorbance (assay: blood-stage malaria parasite growth potency – strain 3D7, dose response (AID 2305)).

In order of falling IC50:
1. O=C(NCc1ccccc1F)c1ccc(N2CCC(NCc3cccc(-n4cccn4)c3)CC2)cc1  1730 nM
2. Cc1cc(F)ccc1-c1nc(N(C)CCN(C)C(=O)N(C)c2ccccc2)nc2c1ccc(=O)n2-c1c(F)cccc1F  1240 nM
3. CCOCCCn1c(=N)c(C(=O)NC(C)c2ccccc2)cc2c(=O)n3cccc(C)c3nc21 (stereo not drawn)  1200 nM
4. Fc1ccc(COc2ccc(Nc3ncnc4ccc(I)cc34)cc2Cl)cc1  1180 nM
5. COc1cc(C(=O)NC2CC(C)(C)N(C)C(C)(C)C2)ccc1-c1cc2cc(Cl)c(Cl)cc2[nH]1  1140 nM
6. CCNc1cc(C)nc(Nc2ccc(NC(=O)C3CCCC3)cc2)n1  1120 nM
7. Cc1c(-c2ccc3c(c2)C(NCCCN2CCCCC2)CC3)cnc(N)c1C (stereo not drawn)  1110 nM
8. O=c1ccc2ccc(F)c3c2n1CC3CN1CCC(NCc2cccc(-c3ccccc3F)c2)CC1 (stereo not drawn)  1100 nM
9. FC(F)(F)c1cc(Nc2ncnc3ccc(Br)cc23)ccc1OCc1ccccc1  1080 nM
10. Cc1ccccc1C1CCN(C2CCC(NC(=O)c3ccc(-c4ccccc4F)o3)CC2)CC1 (stereo not drawn)  1050 nM
11. N#CC(c1ccc(Cl)cc1)c1ccc2c(C(F)(F)F)cc(C(F)(F)F)nc2n1 (stereo not drawn)  1010 nM
12. Cc1[nH]c2ccc(O)cc2c1C1CCN(CC2CCN(C(=O)/C=C/c3ccc(Cl)c(Cl)c3)CC2)CC1  1000 nM
13. OC(CN(Cc1ccccc1)Cc1ccccc1)Cn1c2ccc(Cl)cc2c2cc(Cl)ccc21 (stereo not drawn)  990 nM
14. COc1cc(Nc2nccc(N3CCC(NS(=O)(=O)c4ccc(NC(C)=O)cc4)CC3)n2)cc(OC)c1OC  970 nM
15. COc1ccc(/C=C/C(=O)NCCCCCN2CCC(c3c[nH]c4ccccc34)CC2)cc1O  960 nM
16. c1ccc2c(CNCCCCCCNCc3c(OCC4CC4)ccc4ccccc34)c(OCC3CC3)ccc2c1  930 nM
17. Cc1cccc(CNc2nc(C)cc(N[C@@H](Cc3ccccc3)C(=O)NCCOc3ccccc3)n2)c1  910 nM
18. CN(C)Cc1cccc(-c2cnc(N)c(-c3nc4ccc(S(C)(=O)=O)cc4[nH]3)c2)c1  890 nM
19. COc1ccc(NC(=O)N2CCN(CCCCCNC(=O)/C=C/c3ccc(C(F)(F)F)cc3)CC2)cc1Cl  860 nM
20. NCCNS(=O)(=O)c1ccc(-c2ccnc3[nH]c(-c4ccncc4)cc23)cc1  840 nM
21. COc1cccc2c(NN=Cc3cccc(Cl)c3)ccnc12  840 nM
22. N#CNC(=NCCCSc1csc(N=C(N)N)n1)NCCCCCCCCN=C(NC#N)NCCSCc1csc(N=C(N)N)n1  840 nM
23. Cc1c(Cl)cccc1S(=O)(=O)Nc1cccc(CCN2CCC(N3CCCCC3)CC2)c1  830 nM
24. O=C(CCNc1ccnc(NCCc2ccc(F)cc2)n1)Nc1ccccc1  830 nM
25. Cc1ccccc1C1CCN(C2CCC(NC(=O)/C=C/c3cc(F)cc(F)c3)CC2)CC1 (stereo not drawn)  830 nM
26. COc1cc(NC(=O)c2sc(-c3ccc(Cl)cc3)cc2NC(=O)CN2CC[C@@H](O)C2)ccc1OCCN1CCCC1  800 nM
27. O=C(Nc1nc2ccc(Cl)cc2s1)c1csnn1  790 nM
28. O=C(NC1CCC(CN2CCC(c3c[nH]c4ccccc34)CC2)CC1)c1cc(-c2ccccc2Cl)oc1C(F)(F)F (stereo not drawn)  770 nM
29. Cc1cc(OCC(=O)Nc2ccc(-c3nc4ccccc4[nH]3)cc2)cc(C)c1Cl  740 nM
30. CN1C(C)(C)CC(NC(=O)c2ccc(-c3nc4cc(Cl)c(Cl)cc4[nH]3)cc2)CC1(C)C  730 nM
31. CC(=O)Oc1cc(C)ccc1C1CCN(CCCCNC(=O)c2ccc(NC(=O)c3ccc(Cl)cc3)cc2)CC1  720 nM
32. Cc1ccccc1CNC(=O)Nc1cccc(-c2csc(N=C(N)N)n2)c1  700 nM
33. CCOc1c(Br)cc(Cl)cc1CNCCCNc1nc2ccccc2[nH]1  690 nM
34. CC(C)n1ncc2c(C(=O)N3CCCC4CCCCC43)cc(C3CC3)nc21 (stereo not drawn)  680 nM
35. O=S(=O)(c1ccccc1OC(F)(F)F)C1C[C@H]2CC[C@@H](C1)N2S(=O)(=O)c1cccc(C(F)(F)F)c1 (stereo partly drawn)  670 nM
36. O=C(Nc1ccc2nc(-c3ccc4nc(NC(=O)C5CCCCC5)sc4c3)[nH]c2c1)C1CCCCC1  610 nM
37. Cc1cc(NC(=O)Nc2cccc(C#N)c2)c2ccccc2n1  580 nM
38. Cc1ccc(C)c2c1[nH]c1ccc(C3=NCCN3)cc12  500 nM
39. CCSc1nc2sc3c(c2c(=O)n1-c1ccccc1)CCN(C)C3  460 nM
40. CS(=O)(=O)c1ccc(CNCc2ccc(-c3cccc(-c4nc5ccc(F)cc5[nH]4)c3)cc2)cc1  320 nM
41. COc1ccc(C(=O)[C@H]2C[C@@H]2CN2CC=C(c3c(C)[nH]c4ccccc34)CC2)cc1  300 nM
42. COc1ccc2nc(C)cc(Nc3ccc(Oc4ccc(Br)c5ccccc45)c(Cl)c3)c2c1  280 nM
43. CC[C@H]1CN2CC[C@@H]1C[C@H]2[C@H](O)c1cc(N2CCC(N3CCCCC3)CC2)nc2ccc(OC)cc12  270 nM
44. CC(C)CC1c2[nH]c3ccccc3c(=O)c2CN1C(=O)OC(C)(C)C (stereo not drawn)  220 nM
45. CCN(CC)CCCN(CCCN(CC)CC)c1cc(C)nc(Nc2ccc(Cl)cc2)n1  210 nM
46. COc1ccc(C(=O)C2CCN(CCCCNC(=O)c3ccc(NC(=O)c4cc(Cl)cc(Cl)c4)cc3)CC2)cc1  170 nM
47. O=C(N[C@@H](Cc1ccccc1)[C@H](O)CNC1CCCc2ccccc21)c1cc(C2CCCC2)cc(N2CCCC2=O)c1 (stereo partly drawn)  160 nM
48. Cc1cc2c3c(N)nc(N)nc3ccc2n1C  90 nM
